Results as given in ChEMBL document CHEMBL4418495, “Entpd5 inhibitors” (2012).
Active and inactive are the calls of the source. Unless noted, the calls are words filed in the database; no cut-off is given here.

What follows are molecules tested against T1, Ectonucleoside triphosphate diphosphohydrolase 5 (Mus musculus) (UniProt Q9WUZ9) (assay: Inhibition of ENTPD5 in PTEN knockout mouse MEF cells assessed as induction of ER stress by measuring increase in GRP78/BiP expression at 30 uM incubated for 24 hrs by Western blotting analysis).
T1 sequence (whole entry): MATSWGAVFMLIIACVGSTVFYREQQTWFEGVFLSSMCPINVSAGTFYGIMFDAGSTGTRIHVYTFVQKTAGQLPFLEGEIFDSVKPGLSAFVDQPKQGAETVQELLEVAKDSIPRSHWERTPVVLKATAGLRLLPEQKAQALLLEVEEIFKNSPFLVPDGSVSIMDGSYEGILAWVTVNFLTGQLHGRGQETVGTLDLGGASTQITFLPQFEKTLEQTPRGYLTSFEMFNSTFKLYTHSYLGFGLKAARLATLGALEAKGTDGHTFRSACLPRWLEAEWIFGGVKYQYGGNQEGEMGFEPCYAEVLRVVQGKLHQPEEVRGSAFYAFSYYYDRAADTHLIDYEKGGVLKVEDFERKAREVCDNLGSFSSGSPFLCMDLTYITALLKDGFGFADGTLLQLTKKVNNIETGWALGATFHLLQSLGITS
Type: cell-based

SMILES | inhibition
COc1ccc(/C=C2\SC(=S)N(c3ccc([N+](=O)[O-])cc3)C2=O)cc1O | Active
O=C1/C(=C/c2ccco2)C(=O)N(c2ccc(Br)cc2)C(=S)N1c1ccccc1 | Active
O=C1NC(=S)N(c2ccc(Cl)cc2)C(=O)/C1=C\c1ccc(-c2ccc([N+](=O)[O-])cc2)o1 | Active
O=C1NC(=S)NC(=O)C1=Cc1ccc(-c2ccc(Br)cc2)o1 | Active
S=C(Nc1ccc2nc(-c3ccco3)c(-c3ccco3)nc2c1)N1CCCCCC1 | Active
O=C1NC(=O)N(c2ccc(I)cc2)C(=O)/C1=C/c1cnn(-c2ccccc2)c1 | Active

The molecules below were run on LNCaP (assay: Antitumor activity against human LNCAP cells xenografted in mouse assessed as induction of tumor shrinkage at 1 to 100 mg/kg, ip dosed every other day and measured after 6 weeks by microscopy).
Type: functional, organism-based

SMILES | Activity
COc1ccc(/C=C2\SC(=S)N(c3ccc([N+](=O)[O-])cc3)C2=O)cc1O | Active
O=C1/C(=C/c2ccco2)C(=O)N(c2ccc(Br)cc2)C(=S)N1c1ccccc1 | Active
O=C1NC(=S)N(c2ccc(Cl)cc2)C(=O)/C1=C\c1ccc(-c2ccc([N+](=O)[O-])cc2)o1 | Active
O=C1NC(=S)NC(=O)C1=Cc1ccc(-c2ccc(Br)cc2)o1 | Active
S=C(Nc1ccc2nc(-c3ccco3)c(-c3ccco3)nc2c1)N1CCCCCC1 | Active
O=C1NC(=O)N(c2ccc(I)cc2)C(=O)/C1=C/c1cnn(-c2ccccc2)c1 | Active

These molecules were tested on LNCaP (assay: Antitumor activity against human LNCAP cells xenografted in mouse assessed as reduction in cells left in matrigels at 1 to 100 mg/kg, ip dosed every other day and measured after 6 weeks by hematoxylin and eosin staining based microscopy).
Type: functional, organism-based

SMILES | Activity
COc1ccc(/C=C2\SC(=S)N(c3ccc([N+](=O)[O-])cc3)C2=O)cc1O | Active
O=C1/C(=C/c2ccco2)C(=O)N(c2ccc(Br)cc2)C(=S)N1c1ccccc1 | Active
O=C1NC(=S)N(c2ccc(Cl)cc2)C(=O)/C1=C\c1ccc(-c2ccc([N+](=O)[O-])cc2)o1 | Active
O=C1NC(=S)NC(=O)C1=Cc1ccc(-c2ccc(Br)cc2)o1 | Active
S=C(Nc1ccc2nc(-c3ccco3)c(-c3ccco3)nc2c1)N1CCCCCC1 | Active
O=C1NC(=O)N(c2ccc(I)cc2)C(=O)/C1=C/c1cnn(-c2ccccc2)c1 | Active

Each molecule was assayed against T2, Nucleoside diphosphate phosphatase ENTPD5 (Homo sapiens) (UniProt O75356) (assay: Inhibition of human recombinant ENTPD5 expressed in insect cells assessed as reduction in UDP hydrolysis at 1 uM incubated for 1 hr in presence of UMP, GTP and ATP by Escherichia coli UMP kinase pyrH catalyzed UMP phosphorylation coupled luciferase assay).
T2 sequence (whole entry): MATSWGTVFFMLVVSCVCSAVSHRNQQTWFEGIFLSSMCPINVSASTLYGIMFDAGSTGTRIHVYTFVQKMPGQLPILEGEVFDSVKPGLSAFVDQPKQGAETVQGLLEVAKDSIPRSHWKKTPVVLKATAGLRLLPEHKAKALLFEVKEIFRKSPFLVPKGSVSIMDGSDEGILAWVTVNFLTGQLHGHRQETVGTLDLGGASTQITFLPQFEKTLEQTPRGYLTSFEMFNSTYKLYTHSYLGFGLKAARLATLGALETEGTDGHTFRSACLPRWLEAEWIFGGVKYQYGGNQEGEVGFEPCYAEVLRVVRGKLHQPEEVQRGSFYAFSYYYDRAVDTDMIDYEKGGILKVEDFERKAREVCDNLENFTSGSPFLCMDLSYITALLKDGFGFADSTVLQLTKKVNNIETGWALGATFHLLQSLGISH

SMILES | inhibition
COc1ccc(/C=C2\SC(=S)N(c3ccc([N+](=O)[O-])cc3)C2=O)cc1O | Active
O=C1/C(=C/c2ccco2)C(=O)N(c2ccc(Br)cc2)C(=S)N1c1ccccc1 | Active
O=C1NC(=S)N(c2ccc(Cl)cc2)C(=O)/C1=C\c1ccc(-c2ccc([N+](=O)[O-])cc2)o1 | Active
O=C1NC(=S)NC(=O)C1=Cc1ccc(-c2ccc(Br)cc2)o1 | Active
S=C(Nc1ccc2nc(-c3ccco3)c(-c3ccco3)nc2c1)N1CCCCCC1 | Active
O=C1NC(=O)N(c2ccc(I)cc2)C(=O)/C1=C/c1cnn(-c2ccccc2)c1 | Active

What follows are molecules tested against T2, Nucleoside diphosphate phosphatase ENTPD5 (Homo sapiens) (assay: Inhibition of human recombinant ENTPD5 expressed in insect cells assessed as reduction in UDP hydrolysis up to 10 uM incubated for 1 hr in presence of UMP, GTP and ATP by Escherichia coli UMP kinase pyrH catalyzed UMP phosphorylation coupled luciferase assay).

SMILES | inhibition
COc1ccc(/C=C2\SC(=S)N(c3ccc([N+](=O)[O-])cc3)C2=O)cc1O | Dose-dependent effect
O=C1/C(=C/c2ccco2)C(=O)N(c2ccc(Br)cc2)C(=S)N1c1ccccc1 | Dose-dependent effect
O=C1NC(=S)N(c2ccc(Cl)cc2)C(=O)/C1=C\c1ccc(-c2ccc([N+](=O)[O-])cc2)o1 | Dose-dependent effect
O=C1NC(=S)NC(=O)C1=Cc1ccc(-c2ccc(Br)cc2)o1 | Dose-dependent effect
S=C(Nc1ccc2nc(-c3ccco3)c(-c3ccco3)nc2c1)N1CCCCCC1 | Dose-dependent effect
O=C1NC(=O)N(c2ccc(I)cc2)C(=O)/C1=C/c1cnn(-c2ccccc2)c1 | Dose-dependent effect

These molecules were tested against T3, Uridylate kinase (Escherichia coli (strain K12)) (UniProt P0A7E9) (assay: Inhibition of recombinant Escherichia coli UMP kinase pyrH catalyzed UMP phosphorylation in presence of GTP and ATP incubated for 1 hr by luminescence based assay).
T3 sequence (whole entry): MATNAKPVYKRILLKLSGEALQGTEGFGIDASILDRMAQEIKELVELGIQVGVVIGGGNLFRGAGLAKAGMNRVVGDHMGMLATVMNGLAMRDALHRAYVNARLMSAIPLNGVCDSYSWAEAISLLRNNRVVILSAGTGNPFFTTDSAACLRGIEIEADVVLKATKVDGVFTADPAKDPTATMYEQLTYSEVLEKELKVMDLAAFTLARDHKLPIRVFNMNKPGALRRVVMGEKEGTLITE

SMILES | inhibition
COc1ccc(/C=C2\SC(=S)N(c3ccc([N+](=O)[O-])cc3)C2=O)cc1O | inactive
O=C1/C(=C/c2ccco2)C(=O)N(c2ccc(Br)cc2)C(=S)N1c1ccccc1 | inactive
O=C1NC(=S)N(c2ccc(Cl)cc2)C(=O)/C1=C\c1ccc(-c2ccc([N+](=O)[O-])cc2)o1 | inactive
O=C1NC(=S)NC(=O)C1=Cc1ccc(-c2ccc(Br)cc2)o1 | inactive
S=C(Nc1ccc2nc(-c3ccco3)c(-c3ccco3)nc2c1)N1CCCCCC1 | inactive
O=C1NC(=O)N(c2ccc(I)cc2)C(=O)/C1=C/c1cnn(-c2ccccc2)c1 | inactive

Each molecule was assayed against T2, Nucleoside diphosphate phosphatase ENTPD5 (Homo sapiens) (assay: Inhibition of human recombinant ENTPD5 expressed in insect cells assessed as reduction in reduction in UDP hydrolysis by measuring inorganic phosphate release incubated for 1 hr by malachite green based assay).

SMILES | inhibition
COc1ccc(/C=C2\SC(=S)N(c3ccc([N+](=O)[O-])cc3)C2=O)cc1O | Active
O=C1/C(=C/c2ccco2)C(=O)N(c2ccc(Br)cc2)C(=S)N1c1ccccc1 | Active
O=C1NC(=S)N(c2ccc(Cl)cc2)C(=O)/C1=C\c1ccc(-c2ccc([N+](=O)[O-])cc2)o1 | Active
O=C1NC(=S)NC(=O)C1=Cc1ccc(-c2ccc(Br)cc2)o1 | Active
S=C(Nc1ccc2nc(-c3ccco3)c(-c3ccco3)nc2c1)N1CCCCCC1 | Active
O=C1NC(=O)N(c2ccc(I)cc2)C(=O)/C1=C/c1cnn(-c2ccccc2)c1 | Active
